# According to article PMC12748766, “Structural basis for human chondroitin sulfate chain polymerization” (Nature Communications, 2025):
# Columns and labels:
# Assay in all cases: FACE gel glycosylation assay
# Assay type in all cases: biochemical
# [1] = target: T1, CHSY1-CHPF2 complex (Homo sapiens, UniProt Q86X52); details: acceptor TAMRA-labelled Penta-CSF1 glycopeptide, co-donor UDP-GlcA; Mn2+ and Mg2+, pH 6.5, 30 C
# T1 construct: secreted luminal part of both chains (TM helix removed), HEK Freestyle 293-F; N-terminal SUMO, His6 cut with 3C; C-terminal Avi (CHSY1), 3C site and twin-Strep (CHPF2); heterodimer, expected 169 kDa; with Chondroitin sulfate glucuronyltransferase
# T1 sequence (Q86X52 68-802): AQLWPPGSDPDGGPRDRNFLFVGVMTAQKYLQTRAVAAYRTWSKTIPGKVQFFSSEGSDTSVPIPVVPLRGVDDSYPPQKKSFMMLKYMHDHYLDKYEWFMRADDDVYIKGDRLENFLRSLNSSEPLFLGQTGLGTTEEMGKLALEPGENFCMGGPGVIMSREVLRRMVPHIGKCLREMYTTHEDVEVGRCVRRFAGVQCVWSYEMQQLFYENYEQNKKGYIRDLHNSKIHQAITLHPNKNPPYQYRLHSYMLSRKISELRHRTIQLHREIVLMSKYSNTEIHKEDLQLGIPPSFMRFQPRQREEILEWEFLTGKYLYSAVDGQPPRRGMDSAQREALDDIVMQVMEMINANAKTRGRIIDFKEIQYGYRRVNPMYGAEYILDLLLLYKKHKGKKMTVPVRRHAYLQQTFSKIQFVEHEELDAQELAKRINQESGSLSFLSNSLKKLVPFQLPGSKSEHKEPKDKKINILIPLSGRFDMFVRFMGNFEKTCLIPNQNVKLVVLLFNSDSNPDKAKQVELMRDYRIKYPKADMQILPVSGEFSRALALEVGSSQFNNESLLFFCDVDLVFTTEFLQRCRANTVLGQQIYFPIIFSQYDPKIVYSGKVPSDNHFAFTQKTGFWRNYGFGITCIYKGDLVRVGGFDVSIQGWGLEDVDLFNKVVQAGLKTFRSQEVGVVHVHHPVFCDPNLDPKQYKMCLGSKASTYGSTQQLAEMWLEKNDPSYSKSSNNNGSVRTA
# T1 sequence (Q9P2E5 57-772 partner): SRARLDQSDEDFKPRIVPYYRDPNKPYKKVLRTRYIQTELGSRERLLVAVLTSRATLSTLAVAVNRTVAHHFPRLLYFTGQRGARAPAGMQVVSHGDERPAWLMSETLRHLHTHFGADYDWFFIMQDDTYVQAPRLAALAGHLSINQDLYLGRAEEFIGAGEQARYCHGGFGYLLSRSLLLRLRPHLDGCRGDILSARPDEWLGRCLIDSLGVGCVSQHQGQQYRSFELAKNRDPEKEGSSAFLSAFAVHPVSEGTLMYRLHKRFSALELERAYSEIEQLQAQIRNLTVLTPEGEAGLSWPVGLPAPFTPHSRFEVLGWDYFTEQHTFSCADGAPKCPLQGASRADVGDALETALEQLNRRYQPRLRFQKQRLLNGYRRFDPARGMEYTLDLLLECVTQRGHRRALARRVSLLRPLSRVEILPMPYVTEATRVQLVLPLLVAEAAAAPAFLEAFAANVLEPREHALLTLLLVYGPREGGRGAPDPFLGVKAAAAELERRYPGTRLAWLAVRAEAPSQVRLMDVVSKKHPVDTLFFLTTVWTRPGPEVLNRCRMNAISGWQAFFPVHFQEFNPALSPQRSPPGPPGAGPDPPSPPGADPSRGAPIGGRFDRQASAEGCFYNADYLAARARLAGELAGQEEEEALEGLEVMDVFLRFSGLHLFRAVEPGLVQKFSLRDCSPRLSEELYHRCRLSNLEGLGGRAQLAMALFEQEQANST
# [2] = target: T2, CHSY3-CHPF2 complex (Homo sapiens, UniProt Q70JA7); details: acceptor TAMRA-labelled Penta-CSF1 glycopeptide, co-donor UDP-GlcA; Mn2+ and Mg2+, pH 6.5, 30 C
# T2 construct: secreted luminal part of both chains (TM helix removed), HEK Freestyle 293-F; N-terminal SUMO, His6 cut with 3C; C-terminal Avi (CHSY3), 3C site and twin-Strep (CHPF2); heterodimer, expected 167 kDa; with Chondroitin sulfate glucuronyltransferase
# T2 sequence (Q70JA7 157-882): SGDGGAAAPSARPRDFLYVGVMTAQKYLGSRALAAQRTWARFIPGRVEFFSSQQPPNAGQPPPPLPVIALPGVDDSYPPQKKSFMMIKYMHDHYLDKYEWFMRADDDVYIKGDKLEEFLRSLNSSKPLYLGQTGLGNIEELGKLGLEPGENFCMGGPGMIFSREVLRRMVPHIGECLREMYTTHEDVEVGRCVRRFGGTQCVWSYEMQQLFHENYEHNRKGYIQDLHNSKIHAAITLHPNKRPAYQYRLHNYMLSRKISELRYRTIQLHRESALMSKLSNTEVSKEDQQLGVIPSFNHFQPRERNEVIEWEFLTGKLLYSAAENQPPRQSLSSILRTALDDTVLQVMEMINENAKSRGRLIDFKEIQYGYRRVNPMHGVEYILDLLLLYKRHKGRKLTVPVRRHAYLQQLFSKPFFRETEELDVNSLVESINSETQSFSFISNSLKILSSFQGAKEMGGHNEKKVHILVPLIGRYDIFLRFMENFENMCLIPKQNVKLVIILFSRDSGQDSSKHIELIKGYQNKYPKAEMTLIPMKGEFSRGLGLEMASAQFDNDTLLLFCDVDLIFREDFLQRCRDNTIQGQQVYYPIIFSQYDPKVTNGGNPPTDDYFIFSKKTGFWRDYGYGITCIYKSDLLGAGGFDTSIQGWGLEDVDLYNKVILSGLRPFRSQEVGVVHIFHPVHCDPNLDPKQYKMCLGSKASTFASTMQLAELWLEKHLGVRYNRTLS
# T2 sequence (Q9P2E5 57-772 partner): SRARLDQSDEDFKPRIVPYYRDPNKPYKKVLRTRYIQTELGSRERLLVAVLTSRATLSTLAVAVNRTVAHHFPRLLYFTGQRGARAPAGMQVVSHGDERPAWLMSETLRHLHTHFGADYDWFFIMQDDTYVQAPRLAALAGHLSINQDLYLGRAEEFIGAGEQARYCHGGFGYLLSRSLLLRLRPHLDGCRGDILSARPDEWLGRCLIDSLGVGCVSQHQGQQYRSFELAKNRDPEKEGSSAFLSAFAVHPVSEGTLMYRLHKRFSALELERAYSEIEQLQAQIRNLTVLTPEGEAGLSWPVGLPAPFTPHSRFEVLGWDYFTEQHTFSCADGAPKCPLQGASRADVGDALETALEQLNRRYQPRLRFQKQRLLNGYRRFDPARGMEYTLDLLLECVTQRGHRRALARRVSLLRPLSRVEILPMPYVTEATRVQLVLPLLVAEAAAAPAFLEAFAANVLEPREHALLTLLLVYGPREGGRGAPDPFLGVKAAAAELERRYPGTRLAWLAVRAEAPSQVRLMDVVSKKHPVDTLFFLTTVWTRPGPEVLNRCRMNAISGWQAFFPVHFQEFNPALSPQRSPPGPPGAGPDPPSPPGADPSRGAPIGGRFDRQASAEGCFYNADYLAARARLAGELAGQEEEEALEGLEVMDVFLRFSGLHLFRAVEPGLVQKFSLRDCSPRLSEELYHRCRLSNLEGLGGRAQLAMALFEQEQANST
# [3] = target: T3, CHSY1-CHPF complex (Homo sapiens, UniProt Q86X52); details: acceptor TAMRA-labelled Penta-CSF1 glycopeptide, co-donor UDP-GlcA; Mn2+ and Mg2+, pH 6.5, 30 C
# T3 construct: secreted luminal part of both chains (TM helix removed), HEK Freestyle 293-F; N-terminal SUMO, His6 cut with 3C; C-terminal Avi (CHSY1), 3C site and twin-Strep (CHPF); heterodimer, expected 167 kDa; with Chondroitin sulfate synthase 2
# T3 sequence (Q86X52 68-802): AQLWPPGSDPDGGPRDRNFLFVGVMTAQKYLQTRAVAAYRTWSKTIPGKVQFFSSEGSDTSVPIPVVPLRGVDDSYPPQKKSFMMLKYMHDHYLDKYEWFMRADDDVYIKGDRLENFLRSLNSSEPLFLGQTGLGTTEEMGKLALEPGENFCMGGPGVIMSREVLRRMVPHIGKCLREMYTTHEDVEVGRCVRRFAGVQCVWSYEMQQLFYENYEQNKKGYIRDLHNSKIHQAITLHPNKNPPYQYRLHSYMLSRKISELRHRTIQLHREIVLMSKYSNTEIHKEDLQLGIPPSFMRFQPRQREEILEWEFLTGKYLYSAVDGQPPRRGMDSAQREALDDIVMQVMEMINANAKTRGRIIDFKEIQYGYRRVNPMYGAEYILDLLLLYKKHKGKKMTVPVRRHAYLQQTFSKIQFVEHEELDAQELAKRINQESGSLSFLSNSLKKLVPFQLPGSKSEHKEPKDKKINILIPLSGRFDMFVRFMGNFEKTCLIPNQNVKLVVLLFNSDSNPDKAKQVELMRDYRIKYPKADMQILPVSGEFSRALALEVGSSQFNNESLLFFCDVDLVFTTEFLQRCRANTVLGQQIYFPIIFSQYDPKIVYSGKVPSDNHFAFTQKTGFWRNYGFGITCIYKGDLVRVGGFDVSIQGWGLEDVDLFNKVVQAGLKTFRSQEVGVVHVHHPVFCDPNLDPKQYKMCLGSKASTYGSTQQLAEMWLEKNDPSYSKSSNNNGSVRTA
# T3 sequence (Q8IZ52 81-775 partner): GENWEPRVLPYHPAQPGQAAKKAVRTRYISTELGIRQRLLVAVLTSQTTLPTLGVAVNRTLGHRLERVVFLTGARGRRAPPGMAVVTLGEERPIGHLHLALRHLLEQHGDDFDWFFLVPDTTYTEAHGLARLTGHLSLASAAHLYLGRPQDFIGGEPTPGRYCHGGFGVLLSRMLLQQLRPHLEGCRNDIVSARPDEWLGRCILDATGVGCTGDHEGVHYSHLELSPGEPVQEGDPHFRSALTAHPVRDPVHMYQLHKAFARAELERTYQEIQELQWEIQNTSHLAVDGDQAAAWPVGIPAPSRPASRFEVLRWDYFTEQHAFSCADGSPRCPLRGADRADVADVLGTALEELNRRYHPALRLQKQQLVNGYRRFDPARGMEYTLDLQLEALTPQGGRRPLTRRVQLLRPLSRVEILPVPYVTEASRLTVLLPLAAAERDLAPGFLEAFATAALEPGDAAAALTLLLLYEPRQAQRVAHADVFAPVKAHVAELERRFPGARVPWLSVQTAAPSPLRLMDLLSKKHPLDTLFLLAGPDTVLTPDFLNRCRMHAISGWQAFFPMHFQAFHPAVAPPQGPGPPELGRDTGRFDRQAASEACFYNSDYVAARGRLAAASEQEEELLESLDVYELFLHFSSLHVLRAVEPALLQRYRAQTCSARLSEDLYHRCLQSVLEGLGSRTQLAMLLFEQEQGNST
# [4] = target: T4, CHSY3-CHPF complex (Homo sapiens, UniProt Q70JA7); details: acceptor TAMRA-labelled Hexa-CSF1 glycopeptide, co-donor UDP-GlcA; Mn2+ and Mg2+, pH 6.5, 30 C; C-terminal GT7 site of CHSY3
# T4 construct: secreted luminal part of both chains (TM helix removed), HEK Freestyle 293-F; N-terminal RPTP sigma signal, SUMO, His6 cut with 3C; C-terminal Avi (CHSY3), 3C site and twin-Strep (CHPF); heterodimer, expected 165 kDa; with Chondroitin sulfate synthase 2
# T4 sequence (Q70JA7 157-882): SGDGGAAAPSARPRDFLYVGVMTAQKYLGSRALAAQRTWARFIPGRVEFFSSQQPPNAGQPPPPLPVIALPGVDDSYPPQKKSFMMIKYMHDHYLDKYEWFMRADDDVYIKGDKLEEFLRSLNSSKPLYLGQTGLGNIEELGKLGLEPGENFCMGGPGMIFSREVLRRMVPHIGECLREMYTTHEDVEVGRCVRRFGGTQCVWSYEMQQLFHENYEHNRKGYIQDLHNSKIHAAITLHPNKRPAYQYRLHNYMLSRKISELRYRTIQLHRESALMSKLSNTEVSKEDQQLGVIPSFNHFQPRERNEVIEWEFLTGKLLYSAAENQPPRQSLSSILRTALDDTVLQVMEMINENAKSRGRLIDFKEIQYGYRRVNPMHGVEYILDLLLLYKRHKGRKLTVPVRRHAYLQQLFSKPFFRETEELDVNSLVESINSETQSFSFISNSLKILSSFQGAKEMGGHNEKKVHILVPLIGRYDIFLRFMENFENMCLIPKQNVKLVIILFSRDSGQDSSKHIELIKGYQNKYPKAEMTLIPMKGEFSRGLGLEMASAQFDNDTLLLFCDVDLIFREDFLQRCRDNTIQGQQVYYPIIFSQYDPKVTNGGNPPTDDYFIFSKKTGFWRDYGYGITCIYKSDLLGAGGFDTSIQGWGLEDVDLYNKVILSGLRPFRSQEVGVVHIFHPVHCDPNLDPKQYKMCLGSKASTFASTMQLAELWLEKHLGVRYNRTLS
# T4 sequence (Q8IZ52 81-775 partner): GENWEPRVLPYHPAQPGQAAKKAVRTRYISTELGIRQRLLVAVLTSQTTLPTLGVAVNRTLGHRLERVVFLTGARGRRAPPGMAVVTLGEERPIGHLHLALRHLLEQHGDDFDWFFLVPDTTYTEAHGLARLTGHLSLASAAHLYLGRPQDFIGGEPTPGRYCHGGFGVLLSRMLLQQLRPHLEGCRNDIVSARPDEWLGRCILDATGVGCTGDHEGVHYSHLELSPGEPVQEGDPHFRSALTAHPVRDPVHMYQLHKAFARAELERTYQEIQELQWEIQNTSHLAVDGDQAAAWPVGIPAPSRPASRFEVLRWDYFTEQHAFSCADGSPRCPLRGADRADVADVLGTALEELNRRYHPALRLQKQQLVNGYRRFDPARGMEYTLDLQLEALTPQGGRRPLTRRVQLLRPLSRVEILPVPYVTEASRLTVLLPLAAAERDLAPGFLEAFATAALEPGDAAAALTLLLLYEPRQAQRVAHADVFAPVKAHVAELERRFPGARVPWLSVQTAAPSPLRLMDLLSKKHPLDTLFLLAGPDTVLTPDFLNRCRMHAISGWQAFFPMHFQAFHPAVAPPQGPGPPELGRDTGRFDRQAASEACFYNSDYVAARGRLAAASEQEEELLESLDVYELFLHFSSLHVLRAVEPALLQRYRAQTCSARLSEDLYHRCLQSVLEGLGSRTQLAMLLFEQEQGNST
structure (smiles),measurement,setting,value
CC(=O)N[C@H]1[C@@H](OP(=O)(O)OP(=O)(O)OC[C@H]2O[C@@H](n3ccc(=O)[nH]c3=O)[C@H](O)[C@@H]2O)O[C@H](CO)[C@H](O)[C@@H]1O [UDP-GalNAc],FACE gel glycosylation assay,[1],All four purified CS polymerase complexes were able to elongate the CS chain
same,FACE gel glycosylation assay,[2],All four purified CS polymerase complexes were able to elongate the CS chain
same,FACE gel glycosylation assay,[3],All four purified CS polymerase complexes were able to elongate the CS chain
same,FACE gel glycosylation assay,[4],wild-type CHSY3-CHPF complex efficiently elongated the Penta-CSF1 and Hexa-CSF1 substrates into high molecular weight chains
